Where “and” joins values, the source holds several entries; their conditions need not be identical. Equal entries are not always repeated.
Test system: 628569-122-R-J1-PDC complex spheroid viability
Test: Anticancer human tumor 628569-122-R-J1-PDC patient-derived head and neck squamous carcinoma cell line growth inhibition [CLK]
Details: for IC50: curve of first compound; for viability, T/C: stronger effect = lower value
How it was run: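 Patient-derived tumor cells grown as complex spheroids with HUVEC endothelial cells and mesenchymal stem cells, treated with drug combinations. Concentrations descend in half-log steps from near clinical Cmax, or from 10 microM if Cmax unknown.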

[1] = second compound 0.0316 µM, first compound 0.00316 µM
[2] = second compound 0.0316 µM, first compound 0.01 µM
[3] = second compound 0.0316 µM, first compound 0.0316 µM
[4] = second compound 0.0316 µM, first compound 0.1 µM
[5] = second compound 0.0316 µM, first compound 0.316 µM
[6] = second compound 0.0316 µM, first compound 1 µM
[7] = second compound 0.1 µM, first compound 0.00316 µM
[8] = second compound 0.1 µM, first compound 0.01 µM
[9] = second compound 0.1 µM, first compound 0.0316 µM
[10] = second compound 0.1 µM, first compound 0.1 µM
[11] = second compound 0.1 µM, first compound 0.316 µM
[12] = second compound 0.1 µM, first compound 1 µM
[13] = second compound 0.316 µM, first compound 0.00316 µM
[14] = second compound 0.316 µM, first compound 0.01 µM
[15] = second compound 0.316 µM, first compound 0.0316 µM
[16] = second compound 0.316 µM, first compound 0.1 µM
[17] = second compound 0.316 µM, first compound 0.316 µM
[18] = second compound 0.316 µM, first compound 1 µM
[19] = second compound 1 µM, first compound 0.00316 µM
[20] = second compound 1 µM, first compound 0.01 µM
[21] = second compound 1 µM, first compound 0.0316 µM
[22] = second compound 1 µM, first compound 0.1 µM
[23] = second compound 1 µM, first compound 0.316 µM
[24] = second compound 1 µM, first compound 1 µM
[25] = second compound 3.16 µM, first compound 0.00316 µM
[26] = second compound 3.16 µM, first compound 0.01 µM
[27] = second compound 3.16 µM, first compound 0.0316 µM
[28] = second compound 3.16 µM, first compound 0.1 µM
[29] = second compound 3.16 µM, first compound 0.316 µM
[30] = second compound 3.16 µM, first compound 1 µM
[31] = second compound 10 µM, first compound 0.00316 µM
[32] = second compound 10 µM, first compound 0.01 µM
[33] = second compound 10 µM, first compound 0.0316 µM
[34] = second compound 10 µM, first compound 0.1 µM
[35] = second compound 10 µM, first compound 0.316 µM
[36] = second compound 10 µM, first compound 1 µM
[37] = second compound 0.0316 µM, first compound 3.16 µM
[38] = second compound 0.0316 µM, first compound 10 µM
[39] = second compound 0.1 µM, first compound 3.16 µM
[40] = second compound 0.1 µM, first compound 10 µM
[41] = second compound 0.316 µM, first compound 3.16 µM
[42] = second compound 0.316 µM, first compound 10 µM
[43] = second compound 1 µM, first compound 3.16 µM
[44] = second compound 1 µM, first compound 10 µM
[45] = second compound 3.16 µM, first compound 3.16 µM
[46] = second compound 3.16 µM, first compound 10 µM
[47] = second compound 10 µM, first compound 3.16 µM
[48] = second compound 10 µM, first compound 10 µM
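Note: spheroids exposed to agents for seven days before readout.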
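Throughout, for viability, T/C: 100% = DMSO vehicle control viability.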

For `CCc1c2c(nc3ccc(O)cc13)-c1cc3c(c(=O)n1C2)COC(=O)[C@]3(O)CC` + CNC(=O)c1ccc(Nc2nc(OC3CCCC3)c3c(-c4ccc5nc(C)oc5c4)c[nH]c3n2)c(OC)c1, the IC50 (second compound 0.0316 µM) was 326 nM, the IC50 (second compound 0.1 µM) was 61.5 nM and the IC50 (second compound 0.316 µM) was 10.7 nM. The IC50 (second compound 1 µM) was under 3.16 nM, the IC50 (second compound 3.16 µM) was under 3.16 nM and the IC50 (second compound 10 µM) was under 3.16 nM. For the same compound, the viability, T/C [1] was 62.2%, the viability, T/C [2] was 47.5% and the viability, T/C [3] was 53.5%. For the same compound, the viability, T/C [4] was 46.6%, the viability, T/C [5] was 51.5% and the viability, T/C [6] was 11.4%. It also gave a viability, T/C [7] of 56.6%, a viability, T/C [8] of 51.1% and a viability, T/C [9] of 55.2%. It also gave a viability, T/C [10] of 43.1%, a viability, T/C [11] of 42% and a viability, T/C [12] of 13.9%. It also gave a viability, T/C [13] of 54.2%, a viability, T/C [14] of 49.4% and a viability, T/C [15] of 42.8%. It also gave a viability, T/C [16] of 44.4%, a viability, T/C [17] of 31.9% and a viability, T/C [18] of 21.8%. It also gave a viability, T/C [19] of 38.8%, a viability, T/C [20] of 42.2% and a viability, T/C [21] of 40.2%. It also gave a viability, T/C [22] of 34.2%, a viability, T/C [23] of 26.1% and a viability, T/C [24] of 11.1%. The viability, T/C [25] was 39.8%, the viability, T/C [26] was 40% and the viability, T/C [27] was 36.4%. The viability, T/C [28] was 39.2%, the viability, T/C [29] was 29.7% and the viability, T/C [30] was 7.37%. The viability, T/C [31] was 38.7%, the viability, T/C [32] was 41.8% and the viability, T/C [33] was 37.1%. The viability, T/C [34] was 33.5%, the viability, T/C [35] was 24.5% and the viability, T/C [36] was 6.76%.

In the case of `Cn1ncnc1[C@H]1c2n[nH]c(=O)c3cc(F)cc(c23)N[C@@H]1c1ccc(F)cc1` + CN1CCN(c2cc(C(=O)Nc3cc4cc(-c5cnn(C)c5)ccc4cn3)ccn2)CC1, the IC50 (second compound 0.0316 µM) is reported as over 100 nM, the IC50 (second compound 0.1 µM) is reported as 69 nM and the IC50 (second compound 0.316 µM) is reported as under 0.316 nM. For the same compound, the IC50 (second compound 1 µM) was under 0.316 nM, the IC50 (second compound 3.16 µM) was under 0.316 nM and the IC50 (second compound 10 µM) was under 0.316 nM. For the same compound, the viability, T/C (second compound 0.0316 µM, first compound 0.000316 µM) was 91.6%, the viability, T/C (second compound 0.0316 µM, first compound 0.001 µM) was 98.2% and the viability, T/C [1] was 89.9%. The viability, T/C [2] was 92.5%, the viability, T/C [3] was 82.7% and the viability, T/C [4] was 58.4%. The viability, T/C (second compound 0.1 µM, first compound 0.000316 µM) was 58.3%, the viability, T/C (second compound 0.1 µM, first compound 0.001 µM) was 68.8% and the viability, T/C [7] was 69.9%. For the same compound, the viability, T/C [8] was 62.5%, the viability, T/C [9] was 53.8% and the viability, T/C [10] was 47.5%. For the same compound, the viability, T/C (second compound 0.316 µM, first compound 0.000316 µM) was 35.3%, the viability, T/C (second compound 0.316 µM, first compound 0.001 µM) was 31.6% and the viability, T/C [13] was 33.2%. The viability, T/C [14] was 34.2%, the viability, T/C [15] was 33% and the viability, T/C [16] was 21.4%. The viability, T/C (second compound 1 µM, first compound 0.000316 µM) was 12.2%, the viability, T/C (second compound 1 µM, first compound 0.001 µM) was 4.22% and the viability, T/C [19] was 4.14%. It also gave a viability, T/C [20] of 4.53%, a viability, T/C [21] of 6.11% and a viability, T/C [22] of 5.95%. It also gave a viability, T/C (second compound 3.16 µM, first compound 0.000316 µM) of 9.51%, a viability, T/C (second compound 3.16 µM, first compound 0.001 µM) of 3.28% and a viability, T/C [25] of 6.67%. The viability, T/C [26] was 8.93%, the viability, T/C [27] was 9.05% and the viability, T/C [28] was 5.6%. It also gave a viability, T/C (second compound 10 µM, first compound 0.000316 µM) of 7.27%, a viability, T/C (second compound 10 µM, first compound 0.001 µM) of 1.99% and a viability, T/C [31] of 2.02%. For the same compound, the viability, T/C [32] was 9.25%, the viability, T/C [33] was 4.57% and the viability, T/C [34] was 0.98%.

Work on `O=C(c1cc(Cc2n[nH]c(=O)c3ccccc23)ccc1F)N1CCN(C(=O)C2CC2)CC1` + CN1CCN(c2cc(C(=O)Nc3cc4cc(-c5cnn(C)c5)ccc4cn3)ccn2)CC1 yielded an IC50 (second compound 0.0316 µM) of 6760 nM, an IC50 (second compound 0.1 µM) of 1210 nM and an IC50 (second compound 0.316 µM) of under 31.6 nM. The IC50 (second compound 1 µM) was under 31.6 nM, the IC50 (second compound 3.16 µM) was under 31.6 nM and the IC50 (second compound 10 µM) was under 31.6 nM. The viability, T/C [3] was 91.9%, the viability, T/C [4] was 89.5% and the viability, T/C [5] was 91.2%. For the same compound, the viability, T/C [6] was 83.3%, the viability, T/C [37] was 56.8% and the viability, T/C [38] was 46.5%. For the same compound, the viability, T/C [9] was 55.8%, the viability, T/C [10] was 56.6% and the viability, T/C [11] was 61.9%. For the same compound, the viability, T/C [12] was 49.8%, the viability, T/C [39] was 41.5% and the viability, T/C [40] was 33.7%. For the same compound, the viability, T/C [15] was 34.6%, the viability, T/C [16] was 33.6% and the viability, T/C [17] was 33.9%. The viability, T/C [18] was 27.7%, the viability, T/C [41] was 16.8% and the viability, T/C [42] was 14.2%. For the same compound, the viability, T/C [21] was 9.74%, the viability, T/C [22] was 5.97% and the viability, T/C [23] was 9.24%. The viability, T/C [24] was 5%, the viability, T/C [43] was 8.27% and the viability, T/C [44] was 8.76%. For the same compound, the viability, T/C [27] was 6.83%, the viability, T/C [28] was 7.39% and the viability, T/C [29] was 8.5%. The viability, T/C [30] was 5.51%, the viability, T/C [45] was 6.5% and the viability, T/C [46] was 8.04%. It also gave a viability, T/C [33] of 3.42%, a viability, T/C [34] of 3.07% and a viability, T/C [35] of 1.85%. The viability, T/C [36] was 3.59%, the viability, T/C [47] was 3.68% and the viability, T/C [48] was 2.67%.

In the case of `CCc1c2c(nc3ccc(O)cc13)-c1cc3c(c(=O)n1C2)COC(=O)[C@]3(O)CC`, the viability, T/C (compound 0.00316 µM) is reported as 69.5% and 53%, the viability, T/C (compound 0.01 µM) is reported as 50.6% and 38% and the viability, T/C (compound 0.0316 µM) is reported as 50.3% and 45.5%. For the same compound, the viability, T/C (compound 0.1 µM) was 41.7% and 39%, the viability, T/C (compound 0.316 µM) was 35.8% and 39% and the viability, T/C (compound 1 µM) was 8.79% and 15.5%.

With `COc1cccc2c1C(=O)c1c(O)c3c(c(O)c1C2=O)CC(O)(C(=O)CO)CC3OC1CC(N)C(O)C(C)O1` (centres undefined) + CNC(=O)c1ccc(Nc2nc(OC3CCCC3)c3c(-c4ccc5nc(C)oc5c4)c[nH]c3n2)c(OC)c1 the IC50 (second compound 0.0316 µM) was 479 nM, the IC50 (second compound 0.1 µM) was 446 nM and the IC50 (second compound 0.316 µM) was 373 nM. For the same compound, the IC50 (second compound 1 µM) was 31.6 nM, the IC50 (second compound 3.16 µM) was under 31.6 nM and the IC50 (second compound 10 µM) was under 31.6 nM. The viability, T/C [3] was 65.1%, the viability, T/C [4] was 56.3% and the viability, T/C [5] was 88.3%. For the same compound, the viability, T/C [6] was 12.9%, the viability, T/C [37] was 19.5% and the viability, T/C [38] was 11.4%. For the same compound, the viability, T/C [9] was 49.7%, the viability, T/C [10] was 62.8% and the viability, T/C [11] was 91.8%. The viability, T/C [12] was 5.99%, the viability, T/C [39] was 11.4% and the viability, T/C [40] was 5.02%. The viability, T/C [15] was 47%, the viability, T/C [16] was 47.1% and the viability, T/C [17] was 75.8%. The viability, T/C [18] was 9.78%, the viability, T/C [41] was 17.6% and the viability, T/C [42] was 4.53%. It also gave a viability, T/C [21] of 39.9%, a viability, T/C [22] of 47.9% and a viability, T/C [23] of 58.3%. For the same compound, the viability, T/C [24] was 7.25%, the viability, T/C [43] was 14.1% and the viability, T/C [44] was 5.15%. It also gave a viability, T/C [27] of 43.2%, a viability, T/C [28] of 52.5% and a viability, T/C [29] of 50.3%. The viability, T/C [30] was 9.3%, the viability, T/C [45] was 10.3% and the viability, T/C [46] was 5.46%. It also gave a viability, T/C [33] of 41%, a viability, T/C [34] of 48.8% and a viability, T/C [35] of 47.9%. It also gave a viability, T/C [36] of 6.06%, a viability, T/C [47] of 11.8% and a viability, T/C [48] of 6.29%.

From PubChem BioAssay AID2060611 (Molecular Pharmacology Branch, DTP, NCI, 2025)
